Measured values: patent publication US8865200B2, “Sustained release compositions containing progesterone receptor modulators” (Laboratoire HRA Pharma, priority 2004, dated 2014)

What was measured:
Water solubility = assay type: physicochemical
[1] = Pharmacokinetic study of vaginal rings in women (serum levels by radioimmunoassay and LC/MS); assay type: in vivo
Experimental: A pharmacokinetic study was conducted abroad in two clinics. Radioimmunoassay and liquid chromatography/mass spectroscopic method (LC/MS) were used to measure the serum levels of CDB-2914 and its immunoreactive metabolites. […] After insertion of the ring into the subjects, CDB-2914 was absorbed into the blood stream, increased continuously and reached a plateau at approximately 7 days post-insertion (2-3 ng/mL). Serum levels decreased upon removal of ring at Day 29 (See FIGS. 5A and 5B).

[2] = In vitro release rate from vaginal rings; assay type: physicochemical; conditions: for in vitro release rate: vaginal ring, 20% load W/W, redistilled water, 37 C
Experimental: Thread was used to suspend the rings prepared in example 1 individually in 500 mL wide mouth polyethylene bottles with screw caps. 400 mL of redistilled water was added, and the bottles were placed in a shaking water bath at 37 C. The bath was set to make 100 one-inch strokes per minute. The bathing solution was changed every 24 hours. The CDB-2914 concentration in the aqueous medium was measured via HPLC to determine the release rate of CDB-2914.
Using the same in vitro release rate analysis, vaginal rings were prepared containing either CDB-2914 (20% load, W/W) or mifepristone (20% load, W/W) with several different diameters of silicone tubes, and with tubes containing 18% ethylene vinyl acetate (EVA) as a rate-limiting layer. The rings were prepared by mixing CDB-2914 in a silicone elastomer matrix that was filled into a silicone tube. Upon polymerization, tube was cut into a 16 cm length and the two ends were joined with medical adhesive to form a ring. This vaginal ring has an inner layer of silicone rubber and active agent, and an outer, rate limiting layer. With a silicone tube containing 18% EVA, CDB-2914 was released at the rate of about 96 μg/ring/day, whereas the release of mifepristone was negligible. Using silicone tube C, CDB-2914 was diffused out at more than a 3-fold higher rate than mifepristone (160 μg/ring/day vs. 48 μg/ring/day).

[3] = silicone tube containing 18% EVA as rate-limiting layer

SMILES	water solubility (Water solubility)	serum levels upon removal of ring ([1]; ring removed at Day 29)	bursting release immediately after insertion of the rings ([1]; vaginal ring)	serum concentration compared to Nestorone (NES) ([1]; vaginal ring)	time to reach serum plateau ([1]; vaginal ring)	serum level at plateau ([1]; vaginal ring, plateau at approximately 7 days post-insertion) [ng/mL]	release rate relative to mifepristone ([2]; silicone tube C) [fold]	in vitro release rate ([2]; silicone tube C) [μg/ring/day]	in vitro release rate [2, 3]
CC(=O)O[C@]1(C(C)=O)CC[C@H]2[C@@H]3CCC4=CC(=O)CCC4=C3[C@@H](c3ccc(N(C)C)cc3)C[C@@]21C [CDB-2914, 17α-acetoxy-11β-(4-N,N-dimethylaminophenyl)-19-norpregna-4,9-diene-3,20-dione]	not water soluble	decreased	No bursting release	higher than that of Nestorone	approximately 7 days post-insertion	2 to 3	> 3	160	about 96 μg/ring/day
CC#C[C@]1(O)CC[C@H]2[C@@H]3CCC4=CC(=O)CCC4=C3[C@@H](c3ccc(N(C)C)cc3)C[C@@]21C [mifepristone, reference compound]	–	–	–	–	–	–	–	48	negligible
